For 29 compounds, melting point and IC50 results are on record in US7732456B2, “Pyridone derivative” (Banyu Pharmaceutical Co., Ltd., priority 2004, dated 2010).

A word on the melting point: it is the temperature, or range, at which the solid turns liquid.

Each structure is given as a SMILES string.

T1 sequence (Q99705 whole entry): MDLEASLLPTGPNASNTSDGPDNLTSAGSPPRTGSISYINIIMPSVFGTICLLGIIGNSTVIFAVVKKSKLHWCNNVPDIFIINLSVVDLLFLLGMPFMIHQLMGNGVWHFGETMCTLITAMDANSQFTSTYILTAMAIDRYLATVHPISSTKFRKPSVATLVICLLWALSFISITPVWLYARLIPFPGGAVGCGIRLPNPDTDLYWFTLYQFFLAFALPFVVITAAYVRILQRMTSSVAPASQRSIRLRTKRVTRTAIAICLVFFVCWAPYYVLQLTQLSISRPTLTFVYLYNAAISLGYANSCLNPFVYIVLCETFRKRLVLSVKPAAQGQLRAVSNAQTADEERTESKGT

Tested on in the first data set: not given
Assay: not given
Conditions: not given
In the case of `O=c1cc(OCc2ccccc2)ccn1-c1ccc(OCCN2CCCC2)cc1` [Example 12, 4-Benzyloxy-1-{4-[2-(1-pyrrolidinyl)ethoxy]phenyl}-1H-pyridin-2-one], the melting point lay in the range of 109 to 111 °C.
The same measure, in the same setting: for `O=c1cc(OCc2ccc(Cl)cn2)ccn1-c1ccc(OCCN2CCCC2)cc1` [Example 40, 4-[(5-Chloro-2-pyridinyl)methoxy]-1-{4-[2-(1-pyrrolidinyl)ethoxy]phenyl}-1H-pyridin-2-one] the value was 168 to 170 °C; for `O=C1CCCN1CCOc1ccc(-n2ccc(OCc3ccc(F)cc3)cc2=O)cc1` [Example 95, 4-(4-Fluorobenzyloxy)-1-{4-[2-(2-oxo-1-pyrrolidinyl)ethoxy]phenyl}-1H-pyridin-2-one], 148 to 149 °C; for `CCCN(C)CCOc1ccc(-n2ccc(OCc3ccc(Cl)cn3)cc2=O)cc1` [Example 116, 4-[(5-Chloro-2-pyridinyl)methoxy]-1-(4-{2-[methyl(propyl)amino]ethoxy}-phenyl)-1H-pyridin-2-one], 119 to 123 °C.
The same measure, in the same setting: the same measure for `CC(C)N1CC[C@@H](Oc2ccc(-n3ccc(OCc4ccc(Cl)cn4)cc3=O)cc2)C1` [Example 122, 4-[(5-Chloro-2-pyridinyl)methoxy]-1-(4-{[(3R)-1-isopropyl-3-pyrrolidinyl]-oxy}phenyl)-1H-pyridin-2-one]: 154 to 155 °C; for `CCN1CC[C@@H](Oc2ccc(-n3ccc(OCc4ccc(Cl)cn4)cc3=O)cc2)C1` [Example 123, 4-[(5-Chloro-2-pyridinyl)methoxy]-1-(4-{[(3R)-1-ethyl-3-pyrrolidinyl]-oxy}phenyl)-1H-pyridin-2-one]: 145 to 146 °C.

Another data set has as its target T1, human MCH-1R (Homo sapiens, UniProt Q99705).
T1 construct: expressed in transfected cells; host or cells: CHO-K1 (American Type Culture Collection), plasmid vector pEF/myc/cyto (Invitrogen)
The data set is described as follows: MCH binding inhibition test. The following applies: membranes of CHO-K1 cells expressing human MCH-1R, 50 pM [125I]MCH, 25° C., an hour; read-out: IC50 (50% inhibition concentration to specific [125I]MCH binding). On the procedure: The obtained expression vector was transfected to a host cell CHO-K1 (American Type Culture Collection) using Lipofectamine Plus Reagent (Life Technology Inc.) to provide MCH-1R expression cells.
After washing the glass filter with 50 mM Tris buffer (pH7.4) comprising 10 mM magnesium chloride, 2 mM ethylenediamine tetraacetate and 0.04% Tween-20, radiative activity on the glass filter was measured. […] MCH binding was determined.
In the case of `C[C@@H]1CC[C@@H](C)N1CCOc1ccc(-n2ccc(OCc3ccc(F)cc3)cc2=O)cc1` (relative stereo) [Example 32, 4-(4-Fluorobenzyloxy)-1-{4-[2-(trans-2,5-dimethyl-1-pyrrolidinyl)ethoxy]-phenyl}-1H-pyridin-2-one], the IC50 stood at 3.5 nM.
The same measure, in the same setting: the same measure for `O=c1cc(OCc2ccccc2)ccn1-c1ccc(OCCN2CCCCC2)cc1` [Example 2, 4-Benxyloxy-1-{4-[2-(1-piperidinyl)ethoxy]phenyl}-1H-pyridin-2-one]: 4.4 nM; for `CN(CCOc1ccc(-n2ccc(OCc3ccccc3)cc2=O)cc1)Cc1ccccc1` [Example 5, 4-Benzyloxy-1-(4-{2-[benzyl(methyl)amino]ethoxy}phenyl)-1H-pyridin-2-one]: 3.8 nM.
Still for that read-out and setting: the same measure for `O=c1cc(OCc2ccccc2)ccn1-c1ccc(O[C@@H]2CCN(C3CCCC3)C2)cc1` [Example 18, 4-Benzyloxy-1-(4-{[(3R)-1-cyclopentyl-3-pyrrolidinyl]oxy}-phenyl)-1H-pyridin-2-one]: 4.3 nM; for `CC(C)N1CC[C@@H](Oc2ccc(-n3ccc(OCc4ccccc4)cc3=O)cc2)C1` [Example 19, 4-Benzyloxy-1-(4-{[(3R)-1-isopropyl-3-pyrrolidinyl]oxy}phenyl)-1H-pyridin-2-one]: 5.1 nM; for `Cc1cc(-n2ccc(OCc3ccccc3)cc2=O)ccc1OCCN1CCCCC1` [Example 21]: 2.9 nM.
For `O=c1cc(OCc2ccccc2)ccn1-c1ccc(OCCN2CCCC2)c(F)c1` [Example 23, 4-Benzyloxy-1-{3-fluoro-4-[2-(1-pyrrolidinyl)ethoxy]phenyl}-1H-pyridin-2-one], the IC50 is 5.2 nM.
Same read-out and setting: the same measure for `O=c1cc(OCc2ccc(F)cc2)ccn1-c1ccc(OCCN2CCCCC2)cc1` [Example 28, 4-(4-Fluorobenzyloxy)-1-{4-[2-(1-piperidinyl)ethoxy]phenyl}-1H-pyridin-2-one]: 4.9 nM.
Consider `CCN(CC)CCOc1ccc(-n2ccc(OCc3ccc(F)cc3)cc2=O)cc1` [Example 30, 1-{4-[2-(Diethylamino)ethoxy]phenyl}-4-(4-fluorobenzyloxy)-1H-pyridin-2-one], for which the IC50 amounted to 4.8 nM.
The same measure, in the same setting: for `O=c1cc(/C=C/c2ccc(F)cc2)ccn1-c1ccc(OCCN2CCCC2)cc1` [Example 45, 4-[(E)-2-(4-Fluorophenyl)vinyl]-1-{4-[2-(1-pyrrolidinyl)ethoxy]phenyl}-1H-pyridin-2-one] the value was 1.5 nM; for `O=c1cc(CCc2ccccc2)ccn1-c1ccc(OCCN2CCCC2)cc1` [Example 53, 4-(2-Phenylethyl)-1-{4-[2-(1-pyrrolidinyl)ethoxy]phenyl}-1H-pyridin-2-one], 4.4 nM.
As to `O=c1cc(OCc2ccsc2)ccn1-c1ccc(OCCN2CCCC2)cc1` [Example 68, 1-{4-[2-(1-Pyrrolidinyl)ethoxy]phenyl}-4-(3-thienylmethoxy)-1H-pyridin-2-one], the IC50 turned out to be 4.5 nM.
On the same count and under the same terms, the same measure for `COc1ccc(COc2ccn(-c3ccc(OCCN4CCCC4)cc3)c(=O)c2)cc1` [Example 73, 4-(4-Methoxybenzyloxy)-1-{4-[2-(1-pyrrolidinyl)ethoxy]phenyl}-1H-pyridin-2-one]: 7 nM.
Turning to `O=c1cc(OCc2cccc(Cl)c2)ccn1-c1ccc(OCCN2CCCC2)cc1` [Example 75, 4-(3-Chlorobenzyloxy)-1-{4-[2-(1-pyrrolidinyl)ethoxy]phenyl}-1H-pyridin-2-one], the IC50 amounted to 4.2 nM.
The same measure, in the same setting: the same measure for `CCN(CC)CCOc1ccc(-n2ccc(OCc3ccc(F)cc3)nc2=O)cc1` [Example 81]: 7.8 nM; for `O=c1cc(OCc2ccccc2)ccn1-c1ccc(OCCN2C3CCC2CC3)cc1` [Example 86, 1-{4-[2-(7-Azabicyclo[2.2.1]hept-7-yl)ethoxy]phenyl}-4-benzyloxy-1H-pyridin-2-one]: 1.9 nM; for `O=c1cc(OCc2ccc(F)cc2)ccn1-c1ccc(OCCN2C3CCC2CC3)cc1` [Example 90, 1-{4-[2-(7-Azabicyclo[2.2.1]hept-7-yl)ethoxy]phenyl}-4-(4-fluorobenzyloxy)-1H-pyridin-2-one]: 2.7 nM.
For `O=c1cc(OCc2ccc(F)cc2)ccn1-c1ccc(OCCN2C3CCCC2CC3)cc1` [Example 91, 1-{4-[2-(8-Azabicylo[3.2.1]oct-8yl)ethoxy]phenyl}-4-(4-fluorobenzyloxy)-1H-pyridin-2-one], the IC50 was 3.5 nM.
On the same count and under the same terms, for `O=c1cc(OCc2ccc(F)cc2)ccn1-c1ccc(O[C@@H]2C[C@H]3CCCN3C2)cc1` [Example 92, 4-(4-Fluorobenzyloxy)-1-{4-[(2R,7aR)-hexahydro-1H-pyrrolidin-2-yloxy]phenyl}-1H-pyridin-2-one] the value was 8.8 nM.
Consider `CCN(C)CCOc1ccc(-n2ccc(OCc3ccc(Cl)cn3)cc2=O)cc1` [Example 114, 4-[(5-Chloro-2-pyridinyl)methoxy]-1-(4-{2-[ethyl(methyl)amino]ethoxy}-phenyl)-1H-pyridin-2-one], for which the IC50 came out at 5.4 nM.
In the case of `CN1CC[C@@H](Oc2ccc(-n3ccc(OCc4ccc(Cl)cn4)cc3=O)cc2)C1` [Example 124, 4-[(5-Chloro-2-pyridinyl)methoxy]-1-(4-{[(3R)-1-methyl-3-pyrrolidinyl]-oxy}phenyl)-1H-pyridin-2-one], the IC50 was 6.8 nM.
Regarding `O=c1cc(OCc2ccc(Cl)cn2)ccn1-c1ccc(OC[C@H]2CCCN2C2CCC2)cc1` [Example 133], the IC50 was found to be 4.7 nM.
On the same count and under the same terms, the same measure for `CN1CCC[C@H]1COc1ccc(-n2ccc(OCc3ccc(Cl)cn3)cc2=O)cc1` [Example 134, 4-[(5-Chloro-2-pyridinyl)methoxy]-1-(4-{[(2S)-1-methyl-2-pyrrolidinyl]-methoxy}phenyl)-1H-pyridin-2-one]: 8.6 nM.
